Reference: patent US6083944A, “Quinoline-containing α-ketoamide cysteine and serine protease inhibitors” (Cephalon, Inc., priority 1998, dated 2000)

These compounds were tested against T1, α-chymotrypsin (Bos taurus, UniProt P00766) (assay: Inhibition of serine protease α-chymotrypsin (Succ-Ala-Ala-Pro-Phe-AMC hydrolysis)). Conditions: Table 6; pH 7.5.
T1 construct: purchased Sigma Chem. Co. C-3142
Format: biochemical
Procedure: (§1) To evaluate inhibitory activity, stock solutions (40 times concentrated) of each compound to be tested were prepared in 100% anhydrous DMSO and 5 μl of each inhibitor preparation was aliquoted into each of three wells of a 96-well plate. Recombinant human calpain I, prepared by the method of Meyer et al. (Biochem. J. 1996, 314: 511-519), was diluted into assay buffer (i.e., 50 mM Tris, 50 mM NaCl, 1 mM EDTA, 1 mM EGTA, and 5 mM β-mercaptoethanol, pH 7.5, including 0.2 mM Succ-Leu-Tyr-MNA), and 175 μl was aliquoted into the same wells containing the independent inhibitor stocks as well as to positive control wells containing 5 μl DMSO, but no compound. To start the reaction, 20 μl of 50 mM CaCl2 in assay buffer was added to all wells of the plate, excepting three, which were used as background signal baseline controls. Substrate hydrolysis was monitored every 5 minutes for a total of 30 minutes. Substrate hydrolysis in the absence of inhibitor was linear for up to 15 minutes.
(§2) Inhibition of calpain I activity was calculated as the percent decrease in the rate of substrate hydrolysis in the presence of inhibitor relative to the rate in its absence. Comparison between the inhibited and control rates was made within the linear range for substrate hydrolysis. The IC50 S of inhibitors (concentration yielding 50% inhibition) were determined from the percent decrease in rates of substrate hydrolysis in the presence of five to seven different concentrations of the test compound. The results were plotted as percent inhibition versus log inhibitor concentration, and the IC50 was calculated by fitting the data to the four-parameter logistic equation shown below using the program GraphPad Prism (GraphPad Software, Inc., San Diego, Calif.).
Additionally, because α-chymotrypsin is not a calcium sensitive enzyme and is constitutively active, following addition of inhibitor stocks to the 96 well plates, 100 μl of a 2-fold concentrated stock of enzyme in dilution buffer was first added and the reaction was started by addition of 100 μl of a 2-fold concentrated stock of substrate in assay buffer. Substrate hydrolysis was monitored every 5 minutes up to 30 minutes using a Fluoroskan II (ex=390 nm em=460 nm).

Row | IC50 | SMILES
1 | 14 nM | O=C(NCCNS(=O)(=O)c1ccc([N+](=O)[O-])cc1)C(=O)C(Cc1ccccc1)NC(=O)c1cc(C#Cc2ccccc2)nc2ccccc12 (single isomer, unassigned) [Example 84]

The compounds below were run against T2, cathepsin B (Homo sapiens, UniProt P07858) (assay: Inhibition of cathepsin B (Cbz-Phe-Arg-AMC hydrolysis)). Conditions: Table 6; pH 6.0; read-out: Cath. B IC50.
T2 construct: purchased Calbiochem 219364
Format: biochemical
Procedure: as §1, §2
Additionally, the order of reagents added to the plate was altered because the enzyme is consitutively active. Following inhibitor addition to the plates, appropriate 2× concentrated stock dilutions of the enzyme preparations were made in assay buffer and 100 μl added to each well. The assay was initiated by addition of 100 μl of 2× concentrated stock dilution of substrate in assay buffer. Substrate hydrolysis was monitored using a Fluoriskan II (ex=390 nm; em=460 nm).

Row | IC50 | SMILES
2 | 348 nM | O=C(NCCNS(=O)(=O)c1ccc([N+](=O)[O-])cc1)C(=O)C(Cc1ccccc1)NC(=O)c1cc(C#Cc2ccccc2)nc2ccccc12 (single isomer, unassigned) [Example 84]

What follows are compounds tested against T3, Recombinant human calpain I (Homo sapiens, UniProt P07384) (assay: Inhibition of calpain I (Succ-Leu-Tyr-MNA hydrolysis)). Conditions: Table 5; ** explained as 10,000 nM only in footnotes to Tables 2-4.
T3 construct: made in house
T3 sequence (P07384 1-714): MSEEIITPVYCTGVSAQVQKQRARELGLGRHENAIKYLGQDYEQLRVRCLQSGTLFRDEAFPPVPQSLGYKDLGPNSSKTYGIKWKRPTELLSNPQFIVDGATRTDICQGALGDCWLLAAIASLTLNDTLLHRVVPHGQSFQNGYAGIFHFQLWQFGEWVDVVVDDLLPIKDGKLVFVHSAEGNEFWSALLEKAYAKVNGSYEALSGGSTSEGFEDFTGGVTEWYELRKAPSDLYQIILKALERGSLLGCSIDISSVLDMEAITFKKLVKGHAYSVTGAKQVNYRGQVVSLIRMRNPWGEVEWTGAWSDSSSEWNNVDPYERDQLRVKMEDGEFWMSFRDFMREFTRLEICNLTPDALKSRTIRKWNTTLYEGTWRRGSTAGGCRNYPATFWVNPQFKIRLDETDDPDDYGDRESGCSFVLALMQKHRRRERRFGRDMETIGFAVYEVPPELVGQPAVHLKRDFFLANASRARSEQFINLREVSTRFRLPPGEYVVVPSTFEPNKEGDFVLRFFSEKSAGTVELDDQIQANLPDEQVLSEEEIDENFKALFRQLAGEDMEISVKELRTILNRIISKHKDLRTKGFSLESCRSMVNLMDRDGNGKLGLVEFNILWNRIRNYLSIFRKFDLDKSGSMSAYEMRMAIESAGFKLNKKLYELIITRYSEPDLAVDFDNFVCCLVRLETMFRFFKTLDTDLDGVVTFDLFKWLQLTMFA
Format: biochemical
Procedure: as §1, §2
The parameters a, b, c, and d are defined as follows: a is % inhibition in the absence of inhibitor, b is the slope, c is the IC50, and d is the % inhibition at an infinite concentration of inhibitor.

Row | Calpain I IC50 ** (value in parentheses: % inhibition) | SMILES
3 | 94% | COCC(NC(=O)c1cc(Cl)nc2ccccc12)C(=O)C(=O)NCCNS(=O)(=O)c1ccccc1 (centres unmarked) [Example 158]

Same assay, conditions: Table 5; head prints no unit

Row | IC50 | SMILES
4 | 217 nM | CCCCC(NC(=O)c1cc(Cl)nc2ccccc12)C(=O)C(=O)NCCNS(=O)(=O)c1ccc(Cl)c(Cl)c1 (centres unmarked) [Example 151]
5 | 61 nM | COCC(NC(=O)c1cc(Cl)nc2ccccc12)C(=O)C(=O)NCCNS(=O)(=O)c1ccc(-c2ccccn2)s1 (centres unmarked) [Example 157]

Same assay, conditions: Tables 2-4; pH 7.5

Row | IC50 | SMILES
6 | 35 nM | COc1ccc2nc(C)cc(C(=O)NC(Cc3ccccc3)C(=O)C(=O)NCCNS(=O)(=O)c3ccc(-c4ccccn4)s3)c2c1 (single isomer, unassigned) [Example 143]
7 | 655 nM | COC(=O)C(Cc1ccccc1)NC(=O)C(=O)C(Cc1ccccc1)NC(=O)c1cc(C#Cc2ccccc2)nc2ccccc12 (centres unmarked) [Example 109]
8 | 141 nM | CN(C)S(=O)(=O)NCCNC(=O)C(=O)C(Cc1ccccc1)NC(=O)c1cc(C#Cc2ccccc2)nc2ccccc12 (centres unmarked) [Example 94]
9 | 126 nM | O=C(NCCCNC(=O)C(=O)C(Cc1ccccc1)NC(=O)c1cc(C#Cc2ccccc2)nc2ccccc12)Nc1ccccc1 (centres unmarked) [Example 98]
10 | 43 nM | O=C(NCCNS(=O)(=O)c1ccccc1)C(=O)C(Cc1ccccc1)NC(=O)c1cc(C#Cc2ccccc2)nc2ccccc12 (centres unmarked) [Example 95]
11 | 85 nM | O=C(NCCNS(=O)(=O)c1ccc(-c2ccccn2)s1)C(=O)C(Cc1ccccc1)NC(=O)c1cc(-c2cccs2)nc2ccccc12 (centres unmarked) [Example 146]
12 | 81 nM | O=C(NCCS(=O)(=O)Nc1ccccc1)C(=O)C(Cc1ccccc1)NC(=O)c1cc(Cl)nc2ccccc12 (centres unmarked) [Example 147]
13 | 71 nM | O=C(NCCNS(=O)(=O)c1ccc(-c2ccccn2)s1)C(=O)C(Cc1ccccc1)NC(=O)c1cc(C2CC2)nc2ccccc12 (centres unmarked) [Example 145]
14 | 24 nM | Cc1cc(C(=O)NC(Cc2ccccc2)C(=O)C(=O)NCCNS(=O)(=O)c2ccc(-c3ccccn3)s2)c2ccccc2n1 (single isomer, unassigned) [Example 142]
15 | 14 nM | O=C(NCCNS(=O)(=O)c1ccc(-c2ccccn2)s1)C(=O)[C@H](Cc1ccccc1)NC(=O)c1cc(Cl)nc2ccccc12 [Example 144]

The remaining lines, values behind:

Row | SMILES | IC50
16 | CC(=O)NCCNC(=O)C(=O)C(Cc1ccccc1)NC(=O)c1cc(C#Cc2ccccc2)nc2ccccc12 (centres unmarked) [Example 60] | 140 nM
17 | O=C(NCCNS(=O)(=O)c1cccc2nsnc12)C(=O)C(Cc1ccccc1)NC(=O)c1cc(C#Cc2ccccc2)nc2ccccc12 (centres unmarked) [Example 71] | 89 nM
18 | O=C(NCCNS(=O)(=O)c1cccs1)C(=O)C(Cc1ccccc1)NC(=O)c1cc(C#Cc2ccccc2)nc2ccccc12 (centres unmarked) [Example 90] | 76 nM
19 | CCCCCCOCCOCCOCCNC(=O)C(=O)C(Cc1ccccc1)NC(=O)c1cc(C#Cc2ccccc2)nc2ccccc12 (centres unmarked) [Example 9] | 230 nM
20 | O=C(NCc1ccc2c(c1)OCO2)C(=O)C(Cc1ccccc1)NC(=O)c1cc(C#Cc2ccccc2)nc2ccccc12 (centres unmarked) [Example 33] | 388 nM
21 | COCCOCCCNC(=O)C(=O)C(Cc1ccccc1)NC(=O)c1cc(C#Cc2ccccc2)nc2ccccc12 (centres unmarked) [Example 8] | 570 nM
22 | O=C(NCCNS(=O)(=O)c1cccc2cccnc12)C(=O)C(Cc1ccccc1)NC(=O)c1cc(C#Cc2ccccc2)nc2ccccc12 (centres unmarked) [Example 89] | 130 nM
23 | O=C(NCCNC(=O)C(=O)C(Cc1ccccc1)NC(=O)c1cc(C#Cc2ccccc2)nc2ccccc12)Nc1ccccc1 (centres unmarked) [Example 64] | 67 nM
24 | COC(CNC(=O)C(=O)C(Cc1ccccc1)NC(=O)c1cc(C#Cc2ccccc2)nc2ccccc12)OC (centres unmarked) [Example 7] | 110 nM
25 | O=C(NCc1ccccc1)C(=O)[C@H](Cc1ccccc1)NC(=O)c1cc(C#Cc2ccccc2)nc2ccccc12 [Example 36] | 79 nM

Same assay, conditions: Tables 2-4; values in parentheses; at 10,000 nM

Row | inhibition at 10 µM | SMILES
26 | 89% | CC(C)CC(NC(=O)c1cc(C#Cc2ccccc2)nc2ccccc12)C(=O)C(=O)NCCNC(=O)Nc1ccccc1 (centres unmarked) [Example 116]
27 | 97% | O=C(NCCNS(=O)(=O)c1ccccc1)C(=O)C(Cc1ccccc1)NC(=O)c1ccnc2ccccc12 (single isomer, unassigned) [Example 131]
28 | 95% | C=C(C)C(=O)OCCNC(=O)C(=O)C(Cc1ccccc1)NC(=O)c1cc(C#Cc2ccccc2)nc2ccccc12 (centres unmarked) [Example 111]
29 | 43% | CN(C)NC(=O)C(=O)C(Cc1ccccc1)NC(=O)c1cc(C#Cc2ccccc2)nc2ccccc12 (centres unmarked) [Example 110]
30 | 93% | CC(C)CC(NC(=O)c1cc(C#Cc2ccccc2)nc2ccccc12)C(=O)C(=O)NCCOCCO (centres unmarked) [Example 114]
31 | 100% | CC(C)CC(NC(=O)c1cc(C#Cc2ccccc2)nc2ccccc12)C(=O)C(=O)NCCNC(=O)OCc1ccccc1 (centres unmarked) [Example 115]
32 | 84% | O=C(NCCCCCCNS(=O)(=O)c1cccc2c(Cl)cccc12)C(=O)C(Cc1ccccc1)NC(=O)c1cc(C#Cc2ccccc2)nc2ccccc12 (centres unmarked) [Example 101]
33 | 93% | CC(C)(C)OC(=O)CCNC(=O)C(=O)C(Cc1ccccc1)NC(=O)c1cc(C#Cc2ccccc2)nc2ccccc12 (centres unmarked) [Example 107]

The next lines start with the compound.

Row | SMILES | inhibition at 10 µM
34 | O=C(NCCCO)C(=O)C(Cc1ccccc1)NC(=O)c1cc(C#Cc2ccccc2)nc2ccccc12 (centres unmarked) [Example 12] | 94%
35 | O=C(NCc1cccnc1)C(=O)C(Cc1ccccc1)NC(=O)c1cc(C#Cc2ccccc2)nc2ccccc12 (centres unmarked) [Example 46] | 91%
36 | O=C(NCCCn1ccnc1)C(=O)C(Cc1ccccc1)NC(=O)c1cc(C#Cc2ccccc2)nc2ccccc12 (centres unmarked) [Example 50] | 84%
37 | C#CCNC(=O)C(=O)C(Cc1ccccc1)NC(=O)c1cc(C#Cc2ccccc2)nc2ccccc12 (centres unmarked) [Example 1] | 91%
38 | N#CCCNC(=O)C(=O)C(Cc1ccccc1)NC(=O)c1cc(C#Cc2ccccc2)nc2ccccc12 (centres unmarked) [Example 5] | 95%
39 | O=C(NCCCCCO)C(=O)C(Cc1ccccc1)NC(=O)c1cc(C#Cc2ccccc2)nc2ccccc12 (centres unmarked) [Example 14] | 98%
40 | COc1ccc(CCNC(=O)C(=O)C(Cc2ccccc2)NC(=O)c2cc(C#Cc3ccccc3)nc3ccccc23)cc1OC (centres unmarked) [Example 41] | 88%
41 | CC(NC(=O)C(=O)C(Cc1ccccc1)NC(=O)c1cc(C#Cc2ccccc2)nc2ccccc12)c1cccc2ccccc12 (centres unmarked) [Example 26] | 31%
42 | CC(C)(C)OC(=O)N=C(NCCCCC(CO)NC(=O)C(=O)C(Cc1ccccc1)NC(=O)c1cc(C#Cc2ccccc2)nc2ccccc12)NC(=O)OC(C)(C)C (centres unmarked) [Example 25] | 42%
43 | O=C(NCc1ccncc1)C(=O)C(Cc1ccccc1)NC(=O)c1cc(C#Cc2ccccc2)nc2ccccc12 (centres unmarked) [Example 47] | 98%
44 | O=C(NC1CCCCC1O)C(=O)C(Cc1ccccc1)NC(=O)c1cc(C#Cc2ccccc2)nc2ccccc12 (centres unmarked) [Example 28] | 61%
